Results from patent US20130183418A1, “METHOD OF INHIBITION OF ENZYMATIC BROWNING IN FOOD USING A SULFINIC ACID COMPOUND” (UNIVERSITY OF FLORIDA RESEARCH FOUNDATION, INC., priority 2008, published 2013).

Test system: apple polyphenol oxidase
Experiment: Polyphenol oxidase assay, color formation from catechol at 420 nm
Type: biochemical, Red Delicious apples
Conditions: for Average % Inhibition of apple PPO: average ± standard deviation, n = 6; for apple PPO activity: n=3, control 0.24±0.02
Method: Acetone powder containing apple polyphenol oxidase was prepared from Red Delicious apples. Cored and peeled apple pieces (200 g) were homogenized in a precooled blender along with 400 mL cold acetone (−20° C.) for 1 min and then filtered through Whatman No. 1 filter paper. The residue was extracted 3 times with 200 mL cold acetone and the resulting white powder was dried at room temperature, vacuum sealed in commercial plastic bags, and stored at −20° C. until needed. Crude PPO enzyme from the acetone powder was reconstituted in 0.1 M KH2PO4/Na2HPO4, pH 7.2 Containing 1% Triton X-100 (Bio-Rad Laboratories, Hercules, Calif.) using modified procedures of Murata et al. “Relationship between apple ripening and browning—changes in polyphenol content and polyphenol oxidase”, Journal of Agricultural and Food Chemistry 1995, 43 (5), 1115-21 and Yemenicioglu et al. “Heat inactivation kinetics of apple polyphenoloxidase and activation of its latent form”, Journal of Food Science 1997, 62 (3): 508-10. Acetone powder (1 g) was added to 50 mL of refrigerated 0.1 M KH2PO4/Na2HPO4, pH 7.2 buffer containing 1% TritonX-100 (Bio-Rad Laboratories, Hercules, Calif.) and the mixture was stirred for 20 min at 4° C. The suspension was centrifuged at 1200×g for 30 min, then filtered through glass wool and stored at −20° C. where it remained stable for at least 1 month.
A standard reaction mixture for evaluation of browning inhibition where the hypotaurine comprising solution was a mussel extract, consisted of 2.45 mL of 0.1 sodium acetate/acetic acid buffer, pH 5.5, 0.2 ml mussel extract (or additional pH 5.5 buffer for a control run for comparison), 0.3 mL of 0.5 M catechol (Sigma, St. Louis, Mo.) and 0.05 mL of enzyme extract. The percent inhibition was calculated with the following formula: I=100*(A-B)/A, where A and B are the greatest initial linear rate of the control and the test system respectively.
Polyphenol oxidase activity was measured by monitoring the increase in color (absorbance at 420 nm) in a reaction mixture with catechol as a substrate. […] From the data in FIG. 1, the inhibition of polyphenol oxidase by 90 ppm of hypotaurine was calculated to be 97 percent with a 30 fold decrease in the rate of browning. The mussel extract was employed in a similar manner and inhibition was calculated to be 93 percent with a 14 fold decrease in the rate of browning. […]

[1] = 90 ppm of hypotaurine, catechol substrate, FIG. 1

SMILES | Average % Inhibition of apple PPO (67.5 μM) [%] | Average % Inhibition of apple PPO (250 μM) [%] | Average % Inhibition of apple PPO (500 μM) [%] | Average % Inhibition of apple PPO (500 μM, listed as hypotaurine) [%] | fold decrease in the rate of browning [1] [fold] | inhibition of polyphenol oxidase [1] [%] | Average % Inhibition of apple PPO (500 μM, listed as methane sulfinic acid) [%] | apple PPO activity (67.5 μM) | apple PPO activity (250 μM) | apple PPO activity (500 μM) | inhibition of apple PPO (in words) (67.5 to 500 μM)
O=S(O)c1ccccc1 [Benzene Sulfinic Acid, benzene sulfinic acid] | 20.9 ± 16.15 | 98.5 ± 1.28 | 100 |  |  |  |  |  |  |  | 
NCCS(=O)O [Hypotaurine, 2-aminoethane sulfinic acid] | 39.1 ± 4.48 | 80.0 ± 14.90 | 89.8 ± 7.65 | 89 | 30 | 97 |  |  |  |  | 
CS(=O)O [Methane Sulfinic Acid, methane sulfinic acid] | 33.7 ± 0.69 | 96.8 ± 0.69 | 99.8 ± 0.11 |  |  |  | 100 |  |  |  | 
NCCS(=O)(=O)O [Taurine, reference compound] |  |  |  |  |  |  |  | 0.23±0.04 ΔA420 nm/min | 0.25±0.01 ΔA420 nm/min | 0.23±0.01 ΔA420 nm/min | did not inhibit
